Molecular target: T1, Human Dectin-1b (Homo sapiens, UniProt Q9BXN2)
T1 construct: expressed in transfected cells; host or cells: HEK293
T1 sequence (Q9BXN2 1-201 isoform Q9BXN2-2): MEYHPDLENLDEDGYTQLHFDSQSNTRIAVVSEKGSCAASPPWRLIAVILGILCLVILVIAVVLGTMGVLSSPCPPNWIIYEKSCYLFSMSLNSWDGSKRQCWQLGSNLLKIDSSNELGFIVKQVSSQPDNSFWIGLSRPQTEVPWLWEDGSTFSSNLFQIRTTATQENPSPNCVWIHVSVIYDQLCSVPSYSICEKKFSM
Experiment: Human CLR antagonist screening, NF-κB SEAP reporter in HEK293 cells
Assay type: cell-based
Details: antagonist mode, Ami 1 μM
Experimental: Toll-Like Receptor (TLR), NOD-Like Receptor (NLR) and C-Type Lectin Receptor (CLR) stimulation were tested by assessing NF-κB activation in HEK293 cells expressing a given TLR, NLR or CLR. The activity of the test articles was tested at one concentration and compared to control ligands. These steps were performed in triplicate. hDectin-1a and hDectin-1b: WGP Soluble (0-glucan from S. cerevisiae) at 10 ng/mL Antagonist: 5 ng/mL. Curdlan at 100 μg/mL. Antagonist: 100 μg/mL. Zymosan Depleted (hot alkali treated S. cerevisiae) at 5 μg/mL Antagonist: 3 μg/mL. In a 96-well plate (200 μL total volume) containing the appropriate cells (50,000-75,000 cells/well), 20 μL of the test article or the positive control ligand was added to the wells. For the antagonist assay, the test article was incubated with the cells, at 37° C. with 5% CO2, for 30 minutes prior to the addition of the positive control ligand to the wells. The media added to the wells was designed for the detection of NF-κB induced SEAP expression. After a 16-24 hr incubation the optical density (OD) was read at 650 nm on a Molecular Devices SpectraMax 340PC absorbance detector. Fold induction (ratio of average induced value to average non-induced value) was determined for each TLR, NOD1, NOD2, Dectin-1a, Dectin-1b.

**Q.** Which “Fold Induction” value (+Curdlan 100 μg/mL, No Sample 4, Control− 1) does the source give for `CN(C)CCC=C1c2ccccc2CCc2ccccc21` [Amitriptyline] here?
**A.** Its value is 4.

**Q.** And the “Fold Induction” value (+WGP Soluble 5 ng/mL, No Sample 1, Control− 1)?
**A.** Its value is 1.

**Q.** What about the “Fold Induction” value (+Zymosan Depleted 3 μg/mL, No Sample 7, Control− 1) of the same compound?
**A.** Its value is “slight inhibitory effect”.

**Q.** What about the “Fold Induction” value (+Zymosan Depleted 3 μg/mL, No Sample 7, Control− 1, listed as Ami) of the same compound?
**A.** Its value is 6.
